Key:
Balb/c mice = conditions: twice daily for 4 days; cited from earlier work
mice = conditions: cited from earlier work
[1] = test system: IκBα phosphorylation in HEK293 cells; test: IκBα phosphorylation after TNFα stimulation; format: cell-based; conditions: HEK293, 5 and 10 min after TNFα stimulation

| SMILES | granulocytosis and LPS-induced mortality (Balb/c mice) | toxicity in mice (mice) | inhibition of IκBα phosphorylation and degradation at early time points [1] |
| --- | --- | --- | --- |
| COc1c(Cl)cc2c([nH]c3cnccc32)c1NC(=O)c1cccnc1C [ML-120B] | resulted in granulocytosis and LPS-induced mortality | showed toxicity in mice |  |
| NC(=O)Nc1sc(-c2ccc(F)cc2)cc1C(N)=O [TPCA1] |  | showed toxicity in mice | complete inhibition |

— paper PMC3630250 (Clinical cancer research : an official journal of the …, 2013)
